Test results published in patent US4172891A, “Cephalosporins” (Takeda Chemical Industries, Inc., priority 1976, dated 1979).
Values after ≈ are worked out from the molar mass of the structure shown. Like-named read-outs stand apart in the source and are kept apart here.

Legend:
E. coli NIHJ = experiment: Minimum Inhibitory Concentration, agar dilution, E. coli NIHJ; type: cell-based; settings: Escherichia coli, read-out: Minimum Inhibitory Concentration
Excerpt: (§1) […]. | Minimum Inhibitory Concentrations (mcg/ml, agar dilution)

E. coli O-111 = experiment: Minimum Inhibitory Concentration, agar dilution, E. coli O-111; type: cell-based; settings: Escherichia coli
Excerpt: (§2) Following each example is a tabulation of the minimal inhibitory concentrations (MIC) of the present compound [I] obtained in accordance with the particular example against several representative gram-negative bacteria and the corresponding concentrations of cephaloridine [7-(2-thienylacetamido)-3-(1-pyridyl)methyl-3-cephem-4-carboxylic acid betaine] and cefazolin [sodium 7-(1H-tetrazol-1-yl)acetamido-3-(2-methyl-1,3,4-thiadiazol-5-yl)thiomethyl-3-cephem-4-carboxylate], both of which are typical cephalosporins commercially available and clinically accepted nowadays [The New England Journal of Medicine 294, 24 (1976) and Journal of Pharmaceutical Science 64, 1899 (1975)]. There are also shown the effective doses of the typical compounds of this invention on the mice infected with Escherichia coli in comparison with that of cephaloridine.
Minimum Inhibitory Concentrations (mcg/ml, agar dilution)

E. coli T-7 = experiment: Minimum Inhibitory Concentration, agar dilution, E. coli T-7; type: cell-based; settings: Escherichia coli
Excerpt: as §1

K. pneumoniae DT = experiment: Minimum Inhibitory Concentration, agar dilution, K. pneumoniae DT; type: cell-based; settings: Klebsiella pneumoniae, read-out: Minimum Inhibitory Concentration
Excerpt: as §1

K. pneumoniae GN 3835 = experiment: Minimum Inhibitory Concentration, agar dilution, K. pneumoniae GN 3835; type: cell-based; settings: Klebsiella pneumoniae
Excerpt: as §1

P. vulgaris IFO 3988 = experiment: Minimum Inhibitory Concentration, agar dilution, P. vulgaris IFO 3988; type: cell-based; settings: Proteus vulgaris
Excerpt: as §1

P. mirabilis GN 4359 = experiment: Minimum Inhibitory Concentration, agar dilution, P. mirabilis GN 4359; type: cell-based; settings: Proteus mirabilis
Excerpt: as §1

P. morganii IFO 3168 = experiment: Minimum Inhibitory Concentration, agar dilution, P. morganii IFO 3168; type: cell-based, Proteus morganii; settings: Morganella morganii
Excerpt: as §1

P. rettgeri 8(TNO 336) = experiment: Minimum Inhibitory Concentration, agar dilution, P. rettgeri 8(TNO 336); type: cell-based, Proteus rettgeri; settings: Providencia rettgeri
Excerpt: as §1

P. rettgeri GN 4733 = experiment: Minimum Inhibitory Concentration, agar dilution, P. rettgeri GN 4733; type: cell-based, Proteus rettgeri; settings: Providencia rettgeri
Excerpt: as §1

Cit. freundii GN 99 = experiment: Minimum Inhibitory Concentration, agar dilution, Cit. freundii GN 99; type: cell-based; settings: Citrobacter freundii
Excerpt: as §1

Cit. freundii GN 1706 = experiment: Minimum Inhibitory Concentration, agar dilution, Cit. freundii GN 1706; type: cell-based; settings: Citrobacter freundii
Excerpt: as §1

Ent. cloacae IFO 12937 = experiment: Minimum Inhibitory Concentration, agar dilution, Ent. cloacae IFO 12937; type: cell-based; settings: Enterobacter cloacae
Escherichia coli O-111 = experiment: Comparative protection test on infected mice; type: in vivo; settings: O111, sc, 168 h; male ICR/SLC mice infected intraperitoneally with Escherichia coli O-111; single subcutaneous dose immediately after challenge; 7 days observation
Excerpt: as §2
Comparative protection tests of the compounds of this
invention and cephaloridine on infected mice
*Test animals: male mice (ICR/SLC) 5 mice per group per single dose
Infection: intraperitoneally with Escherichia coli O-111
Administration: a single subcutaneous dose immediately after challenge
Observation period: 7 days

[1] = O111, E. coli O-111, agar dilution, read-out: Minimum Inhibitory Concentration
[2] = T7, read-out: Minimum Inhibitory Concentration
[3] = GN3835, read-out: Minimum Inhibitory Concentration
[4] = IFO3988, read-out: Minimum Inhibitory Concentration
[5] = GN4359, read-out: Minimum Inhibitory Concentration
[6] = IFO3168, read-out: Minimum Inhibitory Concentration
[7] = read-out: Minimum Inhibitory Concentration, P. rettgeri 8(TNO 336)
[8] = GN4733, read-out: Minimum Inhibitory Concentration
[9] = GN99, read-out: Minimum Inhibitory Concentration
[10] = GN1706, read-out: Minimum Inhibitory Concentration
[11] = T7, E. coli T-7, agar dilution, read-out: Minimum Inhibitory Concentration
[12] = GN3835, K. pneumoniae GN 3835, agar dilution, read-out: Minimum Inhibitory Concentration
[13] = IFO3988, P. vulgaris IFO 3988, agar dilution, read-out: Minimum Inhibitory Concentration
[14] = IFO3168, P. morganii IFO 3168, agar dilution, read-out: Minimum Inhibitory Concentration
[15] = P. rettgeri 8(TNO 336), read-out: Minimum Inhibitory Concentration
[16] = GN4733, P. rettgeri GN 4733, agar dilution, read-out: Minimum Inhibitory Concentration
[17] = IFO12937, Ent. cloacae IFO 12937, agar dilution, read-out: Minimum Inhibitory Concentration
[18] = GN99, Cit. freundii GN 99, agar dilution, read-out: Minimum Inhibitory Concentration
[19] = GN1706, Cit. freundii GN 1706, agar dilution, read-out: Minimum Inhibitory Concentration
[20] = K. pneumoniae DT, agar dilution
[21] = GN4359, P. mirabilis GN 4359, agar dilution, read-out: Minimum Inhibitory Concentration

Structure (SMILES)	MIC (E. coli O-111; [1]) [µg/mL]	MIC (E. coli NIHJ; E. coli NIHJ, agar dilution) [µg/mL]	MIC (E. coli T-7; [11]) [µg/mL]	MIC (K. pneumoniae GN 3835; [12]) [µg/mL]	MIC (P. vulgaris IFO 3988; [13]) [µg/mL]	MIC (P. morganii IFO 3168; [14]) [µg/mL]	MIC (P. rettgeri 8(TNO 336); [15]) [µg/mL]	MIC (P. rettgeri GN 4733; [16]) [µg/mL]	MIC (Ent. cloacae IFO 12937; [17]) [µg/mL]	MIC (Cit. freundii GN 99; [18]) [µg/mL]	MIC (Cit. freundii GN 1706; [19]) [µg/mL]	ED50 (Escherichia coli O-111) [mg/kg]	MIC (K. pneumoniae DT; [20]) [µg/mL]	MIC (P. mirabilis GN 4359; [21]) [µg/mL]	further results
Cc1nnc(SCC2=C(C(=O)[O-])N3C(=O)C(NC(=O)Cn4cnnn4)[C@H]3SC2)s1.[Na+] (some centres unmarked) [Cefazolin, sodium 7-(1H-tetrazol-1-yl)acetamido-3-(2-methyl-1,3,4-thiadiazol-5-yl)thiomethyl-3-cephem-4-carboxylate, reference compound]	1.56														MIC (E. coli NIHJ): 1.56 µg/mL; MIC (E. coli T-7; [2]): > 100 µg/mL; MIC (K. pneumoniae DT): 1.56 µg/mL; MIC (K. pneumoniae GN 3835; [3]): 12.5 µg/mL; MIC (P. vulgaris IFO 3988; [4]): 3.13 µg/mL; MIC (P. mirabilis GN 4359; [5]): 3.13 µg/mL; MIC (P. morganii IFO 3168; [6]): > 100 µg/mL; MIC (P. rettgeri 8(TNO 336); [7]): 0.2 µg/mL; MIC (P. rettgeri GN 4733; [8]): > 100 µg/mL; MIC (Cit. freundii GN 99; [9]): 50 µg/mL; MIC (Cit. freundii GN 1706; [10]): > 100 µg/mL
O=C(Cc1cccs1)N[C@@H]1C(=O)N2C(C(=O)[O-])=C(C[n+]3ccccc3)CS[C@H]12 [Cephaloridine, 7-(2-thienylacetamido)-3-(1-pyridyl)methyl-3-cephem-4-carboxylic acid betaine, reference compound]	3.13 (≈ 7.53 µM)	6.25 (≈ 15 µM)	> 100	50 (≈ 120 µM)	6.25 (≈ 15 µM)	> 100	1.56 (≈ 3.75 µM)	> 100	> 100	50 (≈ 120 µM)	> 100	2.6			MIC (K. pneumoniae DT): 3.13 µg/mL (≈ 7.53 µM); MIC (P. mirabilis GN 4359; [5]): 3.13 µg/mL (≈ 7.53 µM)
CC(=O)OCC1=C(C(=O)O)N2C(=O)C(NC(=O)Cc3csc(=N)n3O)C2SC1 (centres unmarked) [Example 1, sodium 7-[2-(2-imino-3-hydroxy-4-thiazolin-4-yl)acetamido]-3-acetoxymethyl-3-cephem-4-carboxylate]	0.1	0.2	3.13	0.2	0.39	0.39	≤ 0.03	0.1	12.5	1.56	3.13	0.075	0.1	0.2	
Cc1nnc(SCC2=C(C(=O)O)N3C(=O)C(NC(=O)Cc4csc(=N)n4O)C3SC2)s1 (centres unmarked) [Example 4, sodium 7-[2-(2-imino-3-hydroxy-4-thiazolin-4-yl)acetamido]-3-(2-methyl-1,3,4-thiadiazol-5-yl)thiomethyl-3-cephem-4-carboxylate]	0.024	0.05	1.56	0.2	0.1	0.1	0.012	0.1	50	0.78	1.56	0.019	0.05	0.05	
Cn1nnnc1SCC1=C(C(=O)O)N2C(=O)C(NC(=O)Cc3csc(=N)n3O)C2SC1 (centres unmarked) [Example 5, sodium 7-[2-(2-imino-3-hydroxy-4-thiazolin-4-yl)acetamido]-3-(1-methyltetrazol-5-yl) thiomethyl-3-cephem-4-carboxylate]	≤ 0.03	0.05	1.56	0.1	0.2	0.78	≤ 0.03	0.05	6.25	0.39	0.78		0.05	0.1	
Cc1nnc(SCC2=C(C(=O)O)N3C(=O)C(NC(=O)Cc4csc(=N)n4O)C3SC2)o1 (centres unmarked) [Example 6, sodium 7-[2-(2-imino-3-hydroxy-4-thiazolin-4-yl)acetamido]-3-(5-methyl-1,3,4-oxadiazol-2-yl) thiomethyl-3-cephem-4-carboxylate]	0.05	0.1	3.13	0.78	0.2	0.1	≤ 0.012	0.1	50	0.78	1.56	0.071	0.1	0.1	
N=c1scc(CC(=O)NC2C(=O)N3C(C(=O)O)=C(CSc4c[nH]nn4)CSC23)n1O (centres unmarked) [Example 7, sodium 7-[2-(2-imino-3-hydroxy-4-thiazolin-4-yl)acetamido]-3-(1H-1,2,3-triazol-4-yl)thiomethyl-3-cephem-4-carboxylate]	0.05	0.78	3.13	0.1	0.2	0.39	≤ 0.03	0.78	> 100	1.56	12.5	0.056	0.1	0.1	
Cn1c(CO)nnc1SCC1=C(C(=O)[O-])N2C(=O)C(NC(=O)Cc3csc(=N)n3O)[C@H]2SC1.[Na+] (some centres unmarked) [Example 8, sodium 7-[2-(2-imino-3-hydroxy-4-thiazolin-4-yl)acetamido]-3-(3-hydroxymethyl-4-methyl-1,2,4-triazol-5-yl)thiomethyl-3-cephem-4-carboxylate]	≤ 0.2														MIC (E. coli NIHJ): ≤ 0.2 µg/mL; MIC (E. coli T-7; [2]): 1.56 µg/mL; MIC (K. pneumoniae DT): ≤ 0.2 µg/mL; MIC (K. pneumoniae GN 3835; [3]): ≤ 0.2 µg/mL; MIC (P. vulgaris IFO 3988; [4]): 0.39 µg/mL; MIC (P. mirabilis GN 4359; [5]): ≤ 0.2 µg/mL; MIC (P. morganii IFO 3168; [6]): ≤ 0.2 µg/mL; MIC (P. rettgeri 8(TNO 336); [7]): ≤ 0.2 µg/mL; MIC (P. rettgeri GN 4733; [8]): ≤ 0.2 µg/mL; MIC (Ent. cloacae IFO 12937; IFO12937, read-out: Minimum Inhibitory Concentration): 12.5 µg/mL; MIC (Cit. freundii GN 99; [9]): 0.78 µg/mL; MIC (Cit. freundii GN 1706; [10]): 3.13 µg/mL
Cn1nnnc1SCC1=C(C(=O)O)N2C(=O)C(NC(=O)Cc3csc(=N)n3O)[C@H]2SC1 (some centres unmarked) [Example 9, 7-[2-(2-imino-3-hydroxy-4-thiazolin-4-yl)acetamido]-3-(1-methyltetrazol-5-yl)thiomethyl-3-cephem-4-carboxylic acid]												0.04			
Cc1nsc(SCC2=C(C(=O)O)N3C(=O)C(NC(=O)Cc4csc(=N)n4O)C3SC2)n1 (centres unmarked) [Example 15, sodium 7-[2-(2-imino-3-hydroxy-4-thiazolin-4-yl)acetamido]-3-(3-methyl-1,2,4-thiadiazol-5-yl) thiomethyl-3-cephem-4-carboxylate]	0.1	0.39	6.25		0.1	1.56	≤ 0.012	0.2		0.78	12.5		0.1	0.1	
N=c1scc(CC(=O)NC2C(=O)N3C(C(=O)O)=C(CSc4nnc(C(F)(F)F)s4)CSC23)n1O (centres unmarked) [Example 16, sodium 7-[2-(2-imino-3-hydroxy-4-thiazolin-4-yl)acetamido]-3-(2-trifluorometyl-1,3,4-thiadiazol-5-yl)thiomethyl-3-cephem-4-carboxylate]		0.78	12.5		0.2	3.13	≤ 0.012	1.56		0.78	6.25		0.39	0.78	MIC (E. coli O-111; O111, read-out: Minimum Inhibitory Concentration): 0.39 µg/mL
N=c1scc(CC(=O)NC2C(=O)N3C(C(=O)O)=C(CSc4nnnn4CCO)CSC23)n1O (centres unmarked) [Example 17, sodium 7-[2-(2-imino-3-hydroxy-4-thiazolin-4-yl)acetamido]-3-[1-(2-hydroxyethyl)-1H-tetrazol-5-yl]thiomethyl-3-cephem-4-carboxylate]	0.05	0.1	1.56	0.1	0.2	0.39	≤ 0.012	0.05		0.39	12.5		0.05	0.1	
